Laboratory results taken from PubChem BioAssay AID248 (DTP/NCI, 2004).
“And” between values parts separate entries of the source, which are not always exact repeats. Equal values may be shown once. Inconclusive results and toxic doses are left out. Rule as the data show it: active = T/C of 150% or more; inactive = T/C below 125%.

Test system: L1210 leukemia ip in BDF1 mice, survival T/C
Test: NCI In Vivo Anticancer Drug Screen. Data for tumor model L1210 Leukemia (intraperitoneal) in B6D2F1 (BDF1) mice
Conditions: endpoint: mean survival time, higher = longer survival
In short: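 Antitumor effect is assessed in tumor-bearing animals. Survival in the compound arm is compared with a vehicle-dosed control arm and expressed as their quotient.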

[1] = dose: 100.0 mg/kg/injection, schedule: Q04DX002 (ip), vehicle: Klucel (hydroxypropylcellulose) (HPC)
[2] = dose: 200.0 mg/kg/injection, schedule: Q04DX002 (ip), vehicle: Klucel (hydroxypropylcellulose) (HPC)
[3] = dose: 100.0 mg/kg/injection, schedule: Q04DX003 (ip), vehicle: Klucel (hydroxypropylcellulose) (HPC)
[4] = dose: 200.0 mg/kg/injection, schedule: Q04DX003 (ip), vehicle: Klucel (hydroxypropylcellulose) (HPC)
[5] = dose: 400.0 mg/kg/injection, schedule: Q04DX003 (ip), vehicle: Klucel (hydroxypropylcellulose) (HPC)
[6] = dose: 75.0 mg/kg/injection, schedule: Q01DX001 (ip), vehicle: carboxymethylcellulose (CMC)
[7] = dose: 100.0 mg/kg/injection, schedule: Q01DX009 (ip), vehicle: Klucel (hydroxypropylcellulose) (HPC)
[8] = dose: 200.0 mg/kg/injection, schedule: Q01DX009 (ip), vehicle: Klucel (hydroxypropylcellulose) (HPC)
[9] = dose: 100.0 mg/kg/injection, schedule: Q01DX001 (ip), vehicle: carboxymethylcellulose (CMC)
[10] = dose: 200.0 mg/kg/injection, schedule: Q01DX001 (ip), vehicle: carboxymethylcellulose (CMC)

Measured: T/C

CC12CCC(O)CC1CCC1C3CC/C(=C\c4ccco4)C(=O)C3(CCC#N)CCC12 (stereo unspecified)
inactive: dose: 100.0 mg/kg/injection, schedule: Q01DX001 (sc), vehicle: steriod suspending solution 108 % of control | dose: 200.0 mg/kg/injection, schedule: Q01DX001 (sc), vehicle: steriod suspending solution 106 % of control | dose: 400.0 mg/kg/injection, schedule: Q01DX001 (sc), vehicle: steriod suspending solution 106 % of control

O=C(COc1ccc(Cl)cc1Cl)OCCCl
inactive: [1] 94 % of control | [2] 105 % of control

CC(=O)OC1(N=NC(C)(C)C)C(C)(C)C(=O)C1(C)C
inactive: [3] 91 % of control | [4] 86 % of control | [5] 91 % of control

O=[N+]([O-])c1cccc(P(=O)(c2cccc([N+](=O)[O-])c2)c2cccc([N+](=O)[O-])c2)c1
inactive: dose: 100.0 mg/kg/injection, schedule: Q01DX009 (ip), vehicle: saline 101 % of control | dose: 100.0 mg/kg/injection, schedule: Q04DX003 (ip), vehicle: saline 93 % of control | dose: 200.0 mg/kg/injection, schedule: Q01DX009 (ip), vehicle: saline 101 % of control | dose: 200.0 mg/kg/injection, schedule: Q04DX003 (ip), vehicle: saline 104 % of control | dose: 400.0 mg/kg/injection, schedule: Q01DX009 (ip), vehicle: saline 95 % of control | dose: 400.0 mg/kg/injection, schedule: Q04DX003 (ip), vehicle: saline 106 % of control

c1ccc(CN(CCNc2ccccc2)c2ccccc2)cc1
inactive: dose: 50.0 mg/kg/injection, schedule: Q01DX009 (ip), vehicle: water 97 % of control | dose: 100.0 mg/kg/injection, schedule: Q01DX009 (ip), vehicle: water 94 % of control

Cc1ccc(Nc2cc(=O)[nH]c(N)n2)cc1Cl
inactive: dose: 100.0 mg/kg/injection, schedule: Q01DX Z (ip), vehicle: methylcellulose (MC) 86 % of control | dose: 200.0 mg/kg/injection, schedule: Q01DX Z (ip), vehicle: methylcellulose (MC) 103 % of control

OC(CCl)CBr (stereo unspecified)
inactive: dose: 6.25 mg/kg/injection, schedule: Q01DX009 (ip), vehicle: saline 96 % of control | dose: 6.25 mg/kg/injection, schedule: Q04DX003 (ip), vehicle: saline 97 % of control | dose: 12.5 mg/kg/injection, schedule: Q01DX009 (ip), vehicle: saline 96 % of control | dose: 12.5 mg/kg/injection, schedule: Q04DX003 (ip), vehicle: saline 92 % of control | dose: 25.0 mg/kg/injection, schedule: Q01DX009 (ip), vehicle: saline 94 % of control | dose: 25.0 mg/kg/injection, schedule: Q04DX003 (ip), vehicle: saline 93 % of control

O=C1/C(=C/c2ccc(O)c(O)c2)CCc2ccccc21
inactive: dose: 30.0 mg/kg/injection, schedule: Q01DX015 (ip), vehicle: saline 97 % of control | dose: 60.0 mg/kg/injection, schedule: Q01DX015 (ip), vehicle: saline 94 % of control | dose: 120.0 mg/kg/injection, schedule: Q01DX015 (ip), vehicle: saline 94 % of control | dose: 240.0 mg/kg/injection, schedule: Q01DX015 (ip), vehicle: saline 100 % of control

CNCc1cccc2ccccc12
inactive: [6] 101 % of control | dose: 150.0 mg/kg/injection, schedule: Q01DX001 (ip), vehicle: carboxymethylcellulose (CMC) 101 % of control | dose: 300.0 mg/kg/injection, schedule: Q01DX001 (ip), vehicle: carboxymethylcellulose (CMC) 107 % of control

CCN1C(=O)NC(=O)/C(=C/N(CCO)CCO)C1=O
inactive: [7] 106 % of control | [3] 94 % of control | [8] 101 % of control | [4] 98 % of control | dose: 400.0 mg/kg/injection, schedule: Q01DX009 (ip), vehicle: Klucel (hydroxypropylcellulose) (HPC) 100 % of control | [5] 93 % of control

Nc1ncn(C2CC(OC(=O)c3ccc(Cl)cc3)C(COC(=O)c3ccc(Cl)cc3)O2)c(=O)n1 (stereo unspecified)
inactive: dose: 100.0 mg/kg/injection, schedule: Q01DX005 (ip), vehicle: saline 110 % of control and 122 % of control | dose: 200.0 mg/kg/injection, schedule: Q01DX005 (ip), vehicle: saline 104 % of control

CCCCCCCCCC(=O)N1CCCC(C)C1 (stereo unspecified)
inactive: dose: 50.0 mg/kg/injection, schedule: Q01DX001 (ip), vehicle: carboxymethylcellulose (CMC) 100 % of control | dose: 50.0 mg/kg/injection, schedule: Q01DX009 (ip), vehicle: carboxymethylcellulose (CMC) 94 % of control | dose: 50.0 mg/kg/injection, schedule: Q04DX003 (ip), vehicle: carboxymethylcellulose (CMC) 101 % of control | [9] 98 % of control | dose: 100.0 mg/kg/injection, schedule: Q01DX009 (ip), vehicle: carboxymethylcellulose (CMC) 90 % of control and 91 % of control | dose: 100.0 mg/kg/injection, schedule: Q04DX002 (ip), vehicle: carboxymethylcellulose (CMC) 93 % of control and 95 % of control | dose: 100.0 mg/kg/injection, schedule: Q04DX003 (ip), vehicle: carboxymethylcellulose (CMC) 95 % of control | [10] 94 % of control | dose: 200.0 mg/kg/injection, schedule: Q01DX009 (ip), vehicle: carboxymethylcellulose (CMC) 89 % of control | dose: 200.0 mg/kg/injection, schedule: Q04DX002 (ip), vehicle: carboxymethylcellulose (CMC) 101 % of control and 103 % of control | dose: 200.0 mg/kg/injection, schedule: Q04DX003 (ip), vehicle: carboxymethylcellulose (CMC) 97 % of control | dose: 400.0 mg/kg/injection, schedule: Q04DX002 (ip), vehicle: carboxymethylcellulose (CMC) 92 % of control

Nc1c(Br)cc2c([nH]c(=O)c3cc(Br)ccc32)c1Br
inactive: [9] 101 % of control | [10] 104 % of control | dose: 400.0 mg/kg/injection, schedule: Q01DX001 (ip), vehicle: carboxymethylcellulose (CMC) 106 % of control

CC(C)(CBr)C(=O)N1CCN(C(=O)C(C)(C)CBr)CC1
inactive: dose: 6.2 mg/kg/injection, schedule: Q01DX Z (ip), vehicle: carboxymethylcellulose (CMC) 109 % of control | dose: 9.2 mg/kg/injection, schedule: Q01DX Z (ip), vehicle: methylcellulose (MC) 94 % of control | dose: 9.4 mg/kg/injection, schedule: Q01DX Z (ip), vehicle: carboxymethylcellulose (CMC) 118 % of control | dose: 14.0 mg/kg/injection, schedule: Q01DX Z (ip), vehicle: carboxymethylcellulose (CMC) 116 % of control | dose: 14.0 mg/kg/injection, schedule: Q01DX Z (ip), vehicle: methylcellulose (MC) 103 % of control | dose: 21.0 mg/kg/injection, schedule: Q01DX Z (ip), vehicle: carboxymethylcellulose (CMC) 121 % of control | dose: 21.0 mg/kg/injection, schedule: Q01DX Z (ip), vehicle: methylcellulose (MC) 103 % of control | dose: 42.0 mg/kg/injection, schedule: Q01DX Z (ip), vehicle: methylcellulose (MC) 111 % of control | dose: 50.0 mg/kg/injection, schedule: Q01DX Z (ip), vehicle: methylcellulose (MC) 121 % of control | dose: 68.0 mg/kg/injection, schedule: Q01DX Z (ip), vehicle: methylcellulose (MC) 98 % of control

ClC1c2ccccc2-c2nsnc2C1Cl (stereo unspecified)
inactive: dose: 50.0 mg/kg/injection, schedule: Q01DX009 (ip), vehicle: Klucel (hydroxypropylcellulose) (HPC) 94 % of control | [7] 87 % of control | [8] 91 % of control | [2] 92 % of control

CON=C1CCC(C(C)(C)C)CC1 (stereo unspecified)
inactive: [6] 106 % of control

CCC(=O)OC1(c2ccccc2)CCN(CCCc2ccccc2Cl)CC1
inactive: dose: 3.13 mg/kg/injection, schedule: Q04DX002 (ip), vehicle: saline with Tween-80 103 % of control | dose: 6.25 mg/kg/injection, schedule: Q04DX002 (ip), vehicle: saline with Tween-80 106 % of control | dose: 12.5 mg/kg/injection, schedule: Q04DX002 (ip), vehicle: saline with Tween-80 103 % of control | dose: 25.0 mg/kg/injection, schedule: Q04DX002 (ip), vehicle: saline with Tween-80 106 % of control

CCOC(=O)Nc1cc2c(c(N)n1)N=C(CN(C)c1ccccc1)CN2
active: dose: 50.0 mg/kg/injection, schedule: Q04DX002 (ip), vehicle: Klucel (hydroxypropylcellulose) (HPC) 196 % of control | [1] 183 % of control
inactive: dose: 5.0 mg/kg/injection, schedule: Q01DX009 (ip), vehicle: Klucel (hydroxypropylcellulose) (HPC) 101 % of control | dose: 6.25 mg/kg/injection, schedule: Q01DX009 (ip), vehicle: Klucel (hydroxypropylcellulose) (HPC) 116 % of control | dose: 12.5 mg/kg/injection, schedule: Q01DX009 (ip), vehicle: Klucel (hydroxypropylcellulose) (HPC) 118 % of control | dose: 15.0 mg/kg/injection, schedule: Q01DX009 (ip), vehicle: Klucel (hydroxypropylcellulose) (HPC) 98 % of control | dose: 25.0 mg/kg/injection, schedule: Q01DX009 (ip), vehicle: Klucel (hydroxypropylcellulose) (HPC) 120 % of control | [2] 96 % of control
